Experimental data taken from PubChem BioAssay AID330 (DTP/NCI, 2004).
Values joined by “and” are separate entries in the source; they are usually repeats but may differ in a detail not shown here. Equal entries are not always repeated. Inconclusive results and toxic doses are left out.

System: P388 leukemia ip, CD2F1 mice, survival T/C
Test: NCI In Vivo Anticancer Drug Screen. Data for tumor model P388 Leukemia (intraperitoneal) in CD2F1 (CDF1) mice
Conditions: endpoint: median survival time, higher = longer survival
Method in brief: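 Mice carrying the transplanted tumor received test compound or vehicle. Survival was recorded in each group, and the value is the treated-group measurement divided by that of the vehicle-treated control group.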

[1] = dose: 50.0 mg/kg/injection, schedule: Q01DX009 (ip), vehicle: saline with Tween-80
[2] = dose: 100.0 mg/kg/injection, schedule: Q01DX009 (ip), vehicle: saline with Tween-80
[3] = dose: 200.0 mg/kg/injection, schedule: Q01DX009 (ip), vehicle: saline with Tween-80
[4] = dose: 50.0 mg/kg/injection, schedule: Q01DX005 (ip), vehicle: saline with Tween-80
[5] = dose: 100.0 mg/kg/injection, schedule: Q01DX005 (ip), vehicle: saline with Tween-80
[6] = dose: 60.0 mg/kg/injection, schedule: Q01DX005 (ip), vehicle: Klucel (hydroxypropylcellulose) (HPC)
[7] = dose: 120.0 mg/kg/injection, schedule: Q01DX005 (ip), vehicle: Klucel (hydroxypropylcellulose) (HPC)
[8] = dose: 50.0 mg/kg/injection, schedule: Q01DX009 (ip), vehicle: Klucel (hydroxypropylcellulose) (HPC)
[9] = dose: 100.0 mg/kg/injection, schedule: Q01DX009 (ip), vehicle: Klucel (hydroxypropylcellulose) (HPC)
[10] = dose: 200.0 mg/kg/injection, schedule: Q01DX009 (ip), vehicle: Klucel (hydroxypropylcellulose) (HPC)
[11] = dose: 25.0 mg/kg/injection, schedule: Q01DX009 (ip), vehicle: Klucel (hydroxypropylcellulose) (HPC)

COC(=O)C[C@](O)(CCCC(C)(C)O)C(=O)O[C@@H]1C(OC)=C[C@]23CCCN2CCc2cc4c(cc2[C@H]13)OCO4 was tested, and the T/C (dose: 0.06 mg/kg/injection, schedule: Q01DX005 (iv), vehicle: clinical formulation) was 106 % of control, the T/C (dose: 0.06 mg/kg/injection, schedule: Q01DX005 (iv), vehicle: saline) was 104 % of control and the T/C (dose: 0.12 mg/kg/injection, schedule: Q01DX005 (iv), vehicle: clinical formulation) was 112 % of control. The T/C (dose: 0.12 mg/kg/injection, schedule: Q01DX005 (iv), vehicle: saline) was 102 % of control, the T/C (dose: 0.12 mg/kg/injection, schedule: Q01DX009 (ip), vehicle: clinical formulation) was 155 % of control and the T/C (dose: 0.12 mg/kg/injection, schedule: Q01DX009 (ip), vehicle: saline) was 152 % of control. For the same molecule, the T/C (dose: 0.25 mg/kg/injection, schedule: Q01DX005 (iv), vehicle: clinical formulation) was 121 % of control, the T/C (dose: 0.25 mg/kg/injection, schedule: Q01DX005 (iv), vehicle: saline) was 102 % of control and the T/C (dose: 0.25 mg/kg/injection, schedule: Q01DX009 (ip), vehicle: clinical formulation) was 166 % of control. The T/C (dose: 0.25 mg/kg/injection, schedule: Q01DX009 (ip), vehicle: saline) was 162 % of control, the T/C (dose: 0.5 mg/kg/injection, schedule: Q01DX005 (iv), vehicle: clinical formulation) was 160 % of control and the T/C (dose: 0.5 mg/kg/injection, schedule: Q01DX009 (ip), vehicle: clinical formulation) was 199 % of control. The T/C (dose: 0.5 mg/kg/injection, schedule: Q01DX009 (ip), vehicle: saline) was 185 % of control, the T/C (dose: 0.58 mg/kg/injection, schedule: Q01DX009 (ip), vehicle: acid diluted with saline) was 194 % of control and the T/C (dose: 0.75 mg/kg/injection, schedule: Q01DX009 (ip), vehicle: acid diluted with saline) was 173 % of control and 180 % of control. For the same molecule, the T/C (dose: 1.0 mg/kg/injection, schedule: Q01DX005 (iv), vehicle: clinical formulation) was 194 % of control, the T/C (dose: 1.0 mg/kg/injection, schedule: Q01DX005 (iv), vehicle: saline) was 168 % of control and the T/C (dose: 1.0 mg/kg/injection, schedule: Q01DX009 (ip), vehicle: clinical formulation) was 252 % of control. The T/C (dose: 1.65 mg/kg/injection, schedule: Q01DX009 (ip), vehicle: acid diluted with saline) was 211 % of control and 229 % of control, the T/C (dose: 1.75 mg/kg/injection, schedule: Q01DX009 (ip), vehicle: acid diluted with saline) was 229 % of control and 234 % of control and 93 % of control and the T/C (dose: 1.8 mg/kg/injection, schedule: Q04DX003 (ip), vehicle: saline + alcohol) was 159 % of control. For the same molecule, the T/C (dose: 1.8 mg/kg/injection, schedule: Q04DX003 (ip), vehicle: saline) was 152 % of control, the T/C (dose: 2.0 mg/kg/injection, schedule: Q01DX005 (iv), vehicle: saline) was 203 % of control and the T/C (dose: 2.25 mg/kg/injection, schedule: Q01DX009 (ip), vehicle: acid diluted with saline) was 223 % of control (2×) and 93 % of control. For the same molecule, the T/C (dose: 2.5 mg/kg/injection, schedule: Q01DX009 (ip), vehicle: acid diluted with saline) was 106 % of control and 95 % of control, the T/C (dose: 3.0 mg/kg/injection, schedule: Q01DX009 (ip), vehicle: acid diluted with saline) was 66 % of control and the T/C (dose: 3.0 mg/kg/injection, schedule: Q04DX003 (ip), vehicle: saline + alcohol) was 99 % of control. The T/C (dose: 3.33 mg/kg/injection, schedule: Q04DX003 (ip), vehicle: saline) was 103 % of control.

With COc1ccc(CC2CCCNC2C(=O)O)cc1 (stereo not drawn) the T/C [1] was 114 % of control, the T/C [2] was 101 % of control and the T/C [3] was 99 % of control.

O=C(c1ccccc1)c1nn(-c2ccccc2)c(=O)cc1-c1ccccc1 was tested, and the T/C [4] was 99 % of control, the T/C [5] was 100 % of control and the T/C (dose: 200.0 mg/kg/injection, schedule: Q01DX005 (ip), vehicle: saline with Tween-80) was 100 % of control.

With C=NN(C)C the T/C (dose: 2.39 mg/kg/injection, schedule: Q01DX009 (ip), vehicle: Klucel (hydroxypropylcellulose) (HPC)) was 95 % of control, the T/C (dose: 4.75 mg/kg/injection, schedule: Q01DX009 (ip), vehicle: Klucel (hydroxypropylcellulose) (HPC)) was 102 % of control and the T/C (dose: 9.5 mg/kg/injection, schedule: Q01DX009 (ip), vehicle: Klucel (hydroxypropylcellulose) (HPC)) was 103 % of control. For the same molecule, the T/C (dose: 19.0 mg/kg/injection, schedule: Q01DX009 (ip), vehicle: Klucel (hydroxypropylcellulose) (HPC)) was 105 % of control.

COc1ccc(N/C=C2\C(=O)CCc3c2oc2cc(Cl)c(O)c(Cl)c32)cc1 was tested, and the T/C (dose: 15.0 mg/kg/injection, schedule: Q01DX005 (ip), vehicle: Klucel (hydroxypropylcellulose) (HPC)) was 93 % of control, the T/C (dose: 30.0 mg/kg/injection, schedule: Q01DX005 (ip), vehicle: Klucel (hydroxypropylcellulose) (HPC)) was 99 % of control and the T/C [6] was 107 % of control and 93 % of control. The T/C [7] was 102 % of control.

In the case of CC(C)N1C(C)c2ccccc2OS1=O (stereo not drawn), the T/C [8] is reported as 99 % of control and the T/C [9] is reported as 108 % of control.

For COc1ccc(C2OC23Cc2ccccc2C3=O)cc1OC (stereo not drawn), the T/C [1] was 109 % of control, the T/C [2] was 100 % of control and the T/C [3] was 88 % of control.

CC(C)C1=C2C3CC(O)C(C=O)=CC(=O)C3(C)CCC2(C)CC1 (stereo not drawn) was tested, and the T/C (dose: 6.25 mg/kg/injection, schedule: Q01DX009 (ip), vehicle: saline + alcohol) was 112 % of control, the T/C (dose: 12.5 mg/kg/injection, schedule: Q01DX009 (ip), vehicle: saline + alcohol) was 110 % of control and the T/C (dose: 25.0 mg/kg/injection, schedule: Q01DX009 (ip), vehicle: saline + alcohol) was 108 % of control.

With Cc1ccc(C2N3CCCN2CC3)cc1 (stereo not drawn) the T/C [1] was 104 % of control, the T/C [2] was 102 % of control and the T/C [3] was 109 % of control.

O=C(Nc1ccc(F)cc1)Nc1nccs1 was tested, and the T/C (dose: 17.5 mg/kg/injection, schedule: Q01DX009 (ip), vehicle: Klucel (hydroxypropylcellulose) (HPC)) was 108 % of control, the T/C (dose: 35.0 mg/kg/injection, schedule: Q01DX009 (ip), vehicle: Klucel (hydroxypropylcellulose) (HPC)) was 110 % of control and the T/C [1] was 96 % of control. For the same molecule, the T/C (dose: 70.0 mg/kg/injection, schedule: Q01DX009 (ip), vehicle: Klucel (hydroxypropylcellulose) (HPC)) was 108 % of control, the T/C [2] was 95 % of control and the T/C (dose: 140.0 mg/kg/injection, schedule: Q01DX009 (ip), vehicle: Klucel (hydroxypropylcellulose) (HPC)) was 115 % of control. For the same molecule, the T/C [3] was 104 % of control.

In the case of O=C(/C=C(/SS/C(=C/C(=O)c1ccccc1)c1ccccc1)c1ccccc1)c1ccccc1, the T/C [8] is reported as 98 % of control, the T/C [9] is reported as 98 % of control and the T/C [10] is reported as 91 % of control.

For C=CCSc1nc2ccc(N3C(=O)CCC3=O)cc2s1, the T/C (dose: 12.5 mg/kg/injection, schedule: Q01DX009 (ip), vehicle: Klucel (hydroxypropylcellulose) (HPC)) was 105 % of control, the T/C [11] was 103 % of control and the T/C [8] was 101 % of control and 102 % of control. The T/C [9] was 92 % of control and the T/C [10] was 89 % of control.

With O=S(=O)(NCCNS(=O)(=O)c1ccccc1)c1ccccc1 the T/C [11] was 90 % of control, the T/C [8] was 100 % of control and the T/C [9] was 90 % of control. For the same molecule, the T/C [10] was 91 % of control.

In the case of COc1ccc(C2OC3=C(Nc4ccc([N+](=O)[O-])cc4N3)C2=O)cc1OC (stereo not drawn), the T/C [6] is reported as 89 % of control, the T/C [7] is reported as 93 % of control and the T/C (dose: 240.0 mg/kg/injection, schedule: Q01DX005 (ip), vehicle: Klucel (hydroxypropylcellulose) (HPC)) is reported as 89 % of control.

For C/C=C/C1CC2CC(CC(O)CC)CN2O1 (stereo not drawn), the T/C (dose: 25.0 mg/kg/injection, schedule: Q01DX005 (ip), vehicle: saline with Tween-80) was 108 % of control, the T/C [4] was 100 % of control and the T/C [5] was 110 % of control.

For CCC(C)(C)N=C(Nc1cccnc1)Nc1ncccn1, the T/C (dose: 100.0 mg/kg/injection, schedule: Q04DX003 (ip), vehicle: saline) was 101 % of control and the T/C (dose: 200.0 mg/kg/injection, schedule: Q04DX003 (ip), vehicle: saline) was 92 % of control.

With Cc1ccc(N=Cc2cccs2)c(Br)c1 the T/C [8] was 100 % of control, the T/C [9] was 118 % of control and the T/C [10] was 100 % of control.

With O=NNc1cncc(Sc2ccccc2)n1 the T/C (dose: 3.12 mg/kg/injection, schedule: Q01DX009 (ip), vehicle: water) was 97 % of control, the T/C (dose: 6.25 mg/kg/injection, schedule: Q01DX009 (ip), vehicle: water) was 94 % of control and the T/C (dose: 12.5 mg/kg/injection, schedule: Q01DX009 (ip), vehicle: water) was 101 % of control. The T/C (dose: 25.0 mg/kg/injection, schedule: Q01DX008 (ip), vehicle: water) was 116 % of control, the T/C (dose: 25.0 mg/kg/injection, schedule: Q01DX009 (ip), vehicle: water) was 107 % of control and the T/C (dose: 50.0 mg/kg/injection, schedule: Q01DX008 (ip), vehicle: water) was 120 % of control. For the same molecule, the T/C (dose: 50.0 mg/kg/injection, schedule: Q01DX009 (ip), vehicle: water) was 92 % of control.

With Cc1ncc(Cl)c2cc3ccccc3cc12 the T/C (dose: 50.0 mg/kg/injection, schedule: Q01DX009 (ip), vehicle: saline) was 101 % of control and 89 % of control, the T/C (dose: 100.0 mg/kg/injection, schedule: Q01DX009 (ip), vehicle: saline) was 99 % of control and the T/C (dose: 200.0 mg/kg/injection, schedule: Q01DX009 (ip), vehicle: saline) was 99 % of control and 94 % of control.
